{"source": "patent US5047413A", "about": "(priority 1987, dated 1991)", "key": {"[1]": {"system": "guinea-pig urinary bladder muscle", "experiment": "tissue or blood"}, "[2]": {"details": "M. Blau, U. Retzke, Zbl. Gynakol. 100 (1984); cited from earlier work"}, "guinea pig taenia coli": {"system": "guinea pig taenia coli", "experiment": "tissue or blood", "details": "Cavia porcellus"}, "urinary bladder": {"system": "urinary bladder", "details": "literature, background; cited from earlier work"}, "guinea pig ileum": {"system": "guinea pig ileum", "experiment": "tissue or blood"}}, "note": "Entries after “also recorded” stand apart in the source; their conditions may differ. Where two headings read alike, the source gives them in different places.", "data": [{"smiles": "CCCOC(C(=O)OC1CCN(C)CC1)(c1ccccc1)c1ccccc1", "note": "[propiverine, 1-methyl-4-piperidyl α,α-diphenyl-α-(n-propoxy)acetate]", "values": [{"measurement": "myotropic/spasmolytic activity compared with papaverine (in words)", "setting": "[1]", "result": "reaches the potency of papaverine"}, {"measurement": "EC50", "setting": "[1]; Cavia porcellus, read-out: ED50 (myotropic/spasmolytic activity)", "result": 53, "unit": "µg/mL"}, {"measurement": "effect on blood pressure (in words)", "setting": "[2]", "result": "lowering of the blood pressure"}, {"measurement": "EC50", "setting": "guinea pig taenia coli; read-out: ED50 (myotropic/spasmolytic activity)", "result": 2, "unit": "µg/mL"}, {"measurement": "EC50", "setting": "guinea pig taenia coli; read-out: Myotropic/spasmolytic activity, Taenia coli, Barium 200 μg/ml (EC 50)", "result": 12, "unit": "µg/mL"}, {"measurement": "side effects (in words)", "setting": "urinary bladder", "result": "not amenable to general use because of certain side effects"}, {"measurement": "therapeutic utility for the tone of the urinary bladder (in words)", "setting": "urinary bladder", "result": "has shown therapeutic utility; also recorded: insufficiently effective in some patients"}, {"measurement": "predominating effect, neurotropic/spasmolytic versus myotropic/spasmolytic (in words)", "setting": "guinea pig ileum", "result": "the undesired myotropic/spasmolytic effect predominates"}, {"measurement": "EC50", "setting": "guinea pig ileum; Cavia porcellus, read-out: Neurotropic/spasmolytic activity, Ileum, Carbachol 50 ng/ml", "result": 0.059, "unit": "µg/mL"}]}]}
